From publication PMC10698238 (Planta medica, 2023)
Entries after “also recorded” stand apart in the source; their conditions may differ. Like-named read-outs stand apart in the source and are kept apart here. Marks after values point to notes of the source that are not given here.

Columns and labels:
[1] = system: Phyllosticta citricarpa; experiment: Inhibition of Phyllosticta citricarpa pycnidia development in citrus leaves; assay type: cell-based; conditions: 21 days; for Decrease of the number of pycnidia produced by P. citricarpa in citrus leaves: 10 mg/mL
[2] = system: Phyllosticta citricarpa; experiment: Inhibition of citrus black spot development in detached citrus fruits; assay type: in vivo; conditions: 21 days; for Inhibition of CBS symptoms in citrus fruits: 10 mg/mL
[3] = system: PC3 (prostate cancer) cell line; experiment: Cytotoxicity assay; conditions: read-out: IC50 PC3
[4] = system: A549 (non-small cell lung cancer) cell line; experiment: Cytotoxicity assay; conditions: read-out: IC50 A549
[5] = system: Phyllosticta citricarpa; experiment: Mycelial growth inhibition assay in petri dishes; assay type: cell-based; conditions: 21 days; for Inhibition of mycelial growth of P. citricarpa: petri dishes, 10 mg/mL
[6] = system: HCT-116; conditions: cited from earlier work
[7] = detached C. sinensis fruits, 10 μL of 10 mg/mL solution in methanol

Row | Compound | Decrease of the number of pycnidia produced by P. citricarpa in citrus leaves [1] | Development of citrus black spot (CBS) symptoms [2, 7] | IC50 ([3]; 72 h incubation) | IC50 ([4]; 72 h incubation) | IC50 ([3]; Homo sapiens, 72 h) | IC50 ([4]; Homo sapiens, A549, 72 h) | further results
1 | paecilin R [compound 2] | 35.5% | + | > 80 µM | > 80 µM |  |  | 
2 | COC(=O)Nc1nc2ccccc2[nH]1 [Carbendazim, carbendazim, reference compound] |  |  |  |  |  |  | Growth [in cm mean (± SD)] of Phyllosticta citricarpa in petri dishes ([5]; positive control, carbendazim 1.0 mg/mL): 0 ^* cm; Number of pycnidia produced in leaves by P. citricarpa ([1]; positive control): 0; Development of citrus black spot (CBS) symptoms ([2]; positive control, 50 μg carbendazim, detached fruits): −
3 | C=C1[C@@H](C)[C@H]2[C@H](Cc3ccccc3)NC(=O)[C@]23[C@H](O)/C=C/[C@](C)(O)C[C@@H](C)C/C=C/[C@H]3[C@@H]1O [compound 7, cytochalasin J] | less than 14% | + | > 80 µM | > 80 µM |  |  | 
4 | Cc1cc(O)c2c(=O)c3c(C(=O)O)cccc3oc2c1 [8a, 8-hydroxy-6-methyl-9-oxo-9H-xanthene-1-carboxylic acid] | less than 14% |  |  |  |  |  | 
5 | paecilin Q [compound 1] | 50.5% | + | > 80 µM | > 80 µM |  |  | Inhibition of mycelial growth of P. citricarpa [5]: 48.6%
6 | CC(=O)OC[C@]12Oc3c(-c4ccc(O)c5c4O[C@@]4(COC(C)=O)C(=C(O)C[C@@H](C)[C@H]4OC(C)=O)C5=O)ccc(O)c3C(=O)C1=C(O)C[C@@H](C)[C@H]2OC(C)=O [compound 3, phomoxanthone A] | 70.2% | − |  |  | 3.18 ± 0.02 µM | 4.95 ± 0.53 µM | Inhibition of CBS symptoms in citrus fruits ([2]; detached fruits): inhibited the development of citrus black spot symptoms; also recorded: completely inhibited CBS symptoms; also recorded: suppressed the hyphal growth and development of CBS lesions
7 | Cc1cc(C(=O)O)c2c(=O)c3c(O)cccc3oc2c1 [8b, 8-hydroxy-3-methyl-9-oxo-9H-xanthene-1-carboxylic acid] | less than 14% |  |  |  |  |  | 
8 | CC(=O)OC[C@]12Oc3ccc(-c4ccc5c(c4O)C(=O)C4=C(O)C[C@@H](C)[C@@H](OC(C)=O)[C@@]4(COC(C)=O)O5)c(O)c3C(=O)C1=C(O)C[C@@H](C)[C@H]2OC(C)=O [compound 5, dicerandrol C] | less than 14% | + |  |  | 2.23 ± 0.13 µM | 2.92 ± 0.24 µM | 
9 | C=C1[C@@H](C)[C@H]2[C@H](Cc3ccccc3)NC(=O)[C@]23[C@H](OC(C)=O)/C=C/[C@](C)(O)C[C@@H](C)C/C=C/[C@H]3[C@@H]1O [compound 6, cytochalasin H] | 78.3% | − | > 50 µM | > 50 µM |  |  | Inhibition of mycelial growth of P. citricarpa [5]: 80%; Inhibition of CBS symptoms in citrus fruits ([2]; detached fruits): inhibited the development of citrus black spot symptoms; also recorded: completely inhibited CBS symptoms; also recorded: suppressed the hyphal growth and development of CBS lesions
10 | CCCCCCCc1cc(=O)c2c(CC(=O)OC)cc(O)cc2o1 [compound 9, 5-carbomethoxymethyl-2-heptyl-7-hydroxychromone] | no activity | + |  |  | > 80 µM | > 80 µM | 
11 | Cc1occc(=O)c1O [compound 10, maltol] | less than 14% | + |  |  | > 80 µM | > 80 µM | 
12 | COc1cc2c(cc1OC)[C@]1(O)C(=O)c3ccc4c(c3O[C@@H]1CO2)C=CC(C)(C)O4 [tephrosin] |  |  |  |  |  |  | Activity against colorectal cancer cell line HCT-116 [6]: showed activity
13 | CC(=O)OC[C@]12Oc3ccc(-c4ccc(O)c5c4O[C@@]4(COC(C)=O)C(=C(O)C[C@@H](C)[C@H]4OC(C)=O)C5=O)c(O)c3C(=O)C1=C(O)C[C@@H](C)[C@H]2OC(C)=O [compound 4, phomoxanthone B] | 63.1% | + |  |  | 7.39 ± 0.62 µM | 10.4 ± 0.59 µM | 
